Assay results reported in patent US8076487B2, “Pyridone derivative and herbicide” (Kumiai Chemical Industry Co., Ltd., priority 2006, dated 2011).

Tests used:
Assay type in all cases: in vivo
[1] = tested on: heartshape false pickerelweed (Monochoria vaginalis (Burm.f.) C.Presl); assay: Test Example 1: herbicidal effect by soil application to paddy field; settings: paddy field soil application; active ingredient 1,000 g per 1 hectare; wettable powder added dropwise to water surface the day after sowing; examined on the 21st day after application
Method in brief: (§1)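 Plants were sown in flooded (3 cm) paddy soil and evaluated for herbicidal effect 21 days after soil application in a greenhouse.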

[2] = tested on: Japanese bulrush (Scirpus juncoides Roxb.); assay: as above; settings: paddy field soil application; active ingredient 1,000 g per 1 hectare; wettable powder added dropwise to water surface the day after sowing; examined on the 21st day after application
Method in brief: as §1

[3] = tested on: early watergrass (Echinochloa oryzicola Vasing); assay: as above; settings: paddy field soil application; active ingredient 1,000 g per 1 hectare; wettable powder added dropwise to water surface the day after sowing; examined on the 21st day after application
Method in brief: as §1

[4] = tested on: slender amaranth (Amaranthus viridis L.); assay: Test Example 3: herbicidal effect by application to upland field (foliage treatment); settings: 14th day after application; for herbicidal effect, Slender Amaranth: foliage treatment, 1,000 g active ingredient per 1 hectare, greenhouse; for herbicidal effect (index), Slender Amaranth: foliage treatment, plants grown two weeks, 1,000 g active ingredient per hectare
Method in brief: (§2)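 Post-emergence spray at 1,000 g AI/ha of wettable powder in water (1,000 L/ha), onto seedlings grown 2 weeks in greenhouse field-soil pots. Graded day 14.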

[5] = tested on: barnyardgrass (Echinochloa crus-galli (L.) P. Beauv. var. crus-galli); assay: as above; settings: 14th day after application; for herbicidal effect, Barnyardgrass: foliage treatment, 1,000 g active ingredient per 1 hectare, greenhouse; for herbicidal effect (index), Barnyardgrass: foliage treatment, plants grown two weeks, 1,000 g active ingredient per hectare
Method in brief: as §2

[6] = tested on: green foxtail (Setaria viridis (L.) P. Beauv.); assay: as above; settings: 14th day after application; for herbicidal effect, Green Foxtail: foliage treatment, 1,000 g active ingredient per 1 hectare, greenhouse; for herbicidal effect (index), Green Foxtail: foliage treatment, plants grown two weeks, 1,000 g active ingredient per hectare
Method in brief: as §2

[7] = tested on: velvetleaf (Abutilon theophrasti medicus); assay: as above; settings: 14th day after application; for herbicidal effect, Velvetleaf: foliage treatment, 1,000 g active ingredient per 1 hectare, greenhouse; for herbicidal effect (index), Velvetleaf: foliage treatment, plants grown two weeks, 1,000 g active ingredient per hectare
Method in brief: as §2

[8] = tested on: slender amaranth (Amaranthus viridis L.); assay: Test Example 2: herbicidal effect by soil application to upland field; settings: soil surface spray, upland field soil, 1,000 g active ingredient per hectare, 21st day after application
Method in brief: (§3)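 Soil-applied wettable powder, 1,000 g a.i./ha, sprayed after sowing onto covered field soil. Effect rated on a standard scale 21 days later in a greenhouse.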

[9] = tested on: barnyardgrass (Echinochloa crus-galli (L.) P. Beauv. var. crus-galli); assay: as above; settings: soil surface spray, upland field soil, 1,000 g active ingredient per hectare, 21st day after application
Method in brief: as §3

[10] = tested on: green foxtail (Setaria viridis (L.) P. Beauv.); assay: as above; settings: soil surface spray, upland field soil, 1,000 g active ingredient per hectare, 21st day after application
Method in brief: as §3

[11] = tested on: velvetleaf (Abutilon theophrasti medicus); assay: as above; settings: soil surface spray, upland field soil, 1,000 g active ingredient per hectare, 21st day after application
Method in brief: as §3

SMILES	herbicidal effect, Monochoria vaginalis (Burm. f.) C. Presl [1]	herbicidal effect, Scirpus juncoides Roxb. [2]	herbicidal effect, Echinochloa oryzicola Vasing [3]	herbicidal effect, Slender Amaranth [4]	herbicidal effect, Barnyardgrass [5]	herbicidal effect, Green Foxtail [6]	herbicidal effect, Velvetleaf [7]	herbicidal effect (index), Slender Amaranth [8]	herbicidal effect (index), Barnyardgrass [9]	herbicidal effect (index), Green Foxtail [10]	herbicidal effect (index), Velvetleaf [11]	herbicidal effect (index), Slender Amaranth [4]	herbicidal effect (index), Barnyardgrass [5]	herbicidal effect (index), Green Foxtail [6]	herbicidal effect (index), Velvetleaf [7]
CCOCCn1c(C(F)(F)F)ccc(C(=O)C2=C(O)C3CCC(C3)C2=O)c1=O (stereo not shown) [III-20]	5 (90% or more of herbicidal effect and crop phytotoxicity)	5 (90% or more of herbicidal effect and crop phytotoxicity)	5 (90% or more of herbicidal effect and crop phytotoxicity)	5 (90% or more of herbicidal effect and crop phytotoxicity)	5 (90% or more of herbicidal effect and crop phytotoxicity)	5 (90% or more of herbicidal effect and crop phytotoxicity)	5 (90% or more of herbicidal effect and crop phytotoxicity)	5 (90% or more of herbicidal effect and crop phytotoxicity)	5 (90% or more of herbicidal effect and crop phytotoxicity)	5 (90% or more of herbicidal effect and crop phytotoxicity)	5 (90% or more of herbicidal effect and crop phytotoxicity)				
C[S+]([O-])CCCn1c(C(F)(F)F)ccc(C(=O)C2=C(O)C3CCC(C3)C2=O)c1=O (stereo not shown) [III-32]	5 (90% or more of herbicidal effect and crop phytotoxicity)	5 (90% or more of herbicidal effect and crop phytotoxicity)	5 (90% or more of herbicidal effect and crop phytotoxicity)	5 (90% or more of herbicidal effect and crop phytotoxicity)	5 (90% or more of herbicidal effect and crop phytotoxicity)	5 (90% or more of herbicidal effect and crop phytotoxicity)	5 (90% or more of herbicidal effect and crop phytotoxicity)	5 (90% or more of herbicidal effect and crop phytotoxicity)	5 (90% or more of herbicidal effect and crop phytotoxicity)	5 (90% or more of herbicidal effect and crop phytotoxicity)	5 (90% or more of herbicidal effect and crop phytotoxicity)				
CCOCCn1c(C(F)(F)F)ccc(C(=O)c2cnn(C)c2OC(=O)c2ccccc2)c1=O [IV-35]	5 (90% or more of herbicidal effect and crop phytotoxicity)	5 (90% or more of herbicidal effect and crop phytotoxicity)	5 (90% or more of herbicidal effect and crop phytotoxicity)	5 (90% or more of herbicidal effect and crop phytotoxicity)	5 (90% or more of herbicidal effect and crop phytotoxicity)	5 (90% or more of herbicidal effect and crop phytotoxicity)	5 (90% or more of herbicidal effect and crop phytotoxicity)	5 (90% or more of herbicidal effect and crop phytotoxicity)	5 (90% or more of herbicidal effect and crop phytotoxicity)	5 (90% or more of herbicidal effect and crop phytotoxicity)	5 (90% or more of herbicidal effect and crop phytotoxicity)				
CCCS(=O)(=O)Cn1c(C(F)(F)F)ccc(C(=O)C2=C(O)CCCC2=O)c1=O [I-51]	5 (90% or more of herbicidal effect and crop phytotoxicity)	5 (90% or more of herbicidal effect and crop phytotoxicity)	5 (90% or more of herbicidal effect and crop phytotoxicity)					5 (90% or more of herbicidal effect and crop phytotoxicity)	5 (90% or more of herbicidal effect and crop phytotoxicity)	5 (90% or more of herbicidal effect and crop phytotoxicity)	5 (90% or more of herbicidal effect and crop phytotoxicity)	5 (90% or more of herbicidal effect and crop phytotoxicity)	5 (90% or more of herbicidal effect and crop phytotoxicity)	5 (90% or more of herbicidal effect and crop phytotoxicity)	5 (90% or more of herbicidal effect and crop phytotoxicity)
Cn1c(C(F)(F)F)ccc(C(=O)C2=C(Sc3ccccc3)C3CCC(C3)C2=O)c1=O (stereo not shown) [III-14]	5 (90% or more of herbicidal effect and crop phytotoxicity)	5 (90% or more of herbicidal effect and crop phytotoxicity)	5 (90% or more of herbicidal effect and crop phytotoxicity)	5 (90% or more of herbicidal effect and crop phytotoxicity)	5 (90% or more of herbicidal effect and crop phytotoxicity)	5 (90% or more of herbicidal effect and crop phytotoxicity)	5 (90% or more of herbicidal effect and crop phytotoxicity)	5 (90% or more of herbicidal effect and crop phytotoxicity)	4 (70 to less than 90% of herbicidal effect and crop phytotoxicity)	4 (70 to less than 90% of herbicidal effect and crop phytotoxicity)	5 (90% or more of herbicidal effect and crop phytotoxicity)				
Nn1c(C(F)(F)F)ccc(C(=O)C2=C(O)CCCC2=O)c1=O [I-156]	5 (90% or more of herbicidal effect and crop phytotoxicity)	5 (90% or more of herbicidal effect and crop phytotoxicity)	5 (90% or more of herbicidal effect and crop phytotoxicity)	5 (90% or more of herbicidal effect and crop phytotoxicity)	5 (90% or more of herbicidal effect and crop phytotoxicity)	4 (70 to less than 90% of herbicidal effect and crop phytotoxicity)	5 (90% or more of herbicidal effect and crop phytotoxicity)	5 (90% or more of herbicidal effect and crop phytotoxicity)	5 (90% or more of herbicidal effect and crop phytotoxicity)	4 (70 to less than 90% of herbicidal effect and crop phytotoxicity)	5 (90% or more of herbicidal effect and crop phytotoxicity)				
CON=CCn1c(C(F)(F)F)ccc(C(=O)C2=C(O)CCCC2=O)c1=O [I-133]	5 (90% or more of herbicidal effect and crop phytotoxicity)	5 (90% or more of herbicidal effect and crop phytotoxicity)	5 (90% or more of herbicidal effect and crop phytotoxicity)	5 (90% or more of herbicidal effect and crop phytotoxicity)	5 (90% or more of herbicidal effect and crop phytotoxicity)	4 (70 to less than 90% of herbicidal effect and crop phytotoxicity)	5 (90% or more of herbicidal effect and crop phytotoxicity)	5 (90% or more of herbicidal effect and crop phytotoxicity)	5 (90% or more of herbicidal effect and crop phytotoxicity)	4 (70 to less than 90% of herbicidal effect and crop phytotoxicity)	5 (90% or more of herbicidal effect and crop phytotoxicity)				
COc1cc(-n2c(C(F)(F)F)ccc(C(=O)C3=C(O)CCCC3=O)c2=O)ccc1Cl [I-108]	5 (90% or more of herbicidal effect and crop phytotoxicity)	5 (90% or more of herbicidal effect and crop phytotoxicity)	5 (90% or more of herbicidal effect and crop phytotoxicity)					5 (90% or more of herbicidal effect and crop phytotoxicity)	5 (90% or more of herbicidal effect and crop phytotoxicity)	4 (70 to less than 90% of herbicidal effect and crop phytotoxicity)	5 (90% or more of herbicidal effect and crop phytotoxicity)	5 (90% or more of herbicidal effect and crop phytotoxicity)	5 (90% or more of herbicidal effect and crop phytotoxicity)	5 (90% or more of herbicidal effect and crop phytotoxicity)	5 (90% or more of herbicidal effect and crop phytotoxicity)
